{
  "source": "patent US12226480B2",
  "about": "“Combination drug including TLR7 agonist” (SUMITOMO PHARMA CO., LTD., priority 2017, dated 2025)",
  "key": {"[1]": {"system": "murine colon cancer cell line CT26", "experiment": "Antitumor activity of combination use of anti-PD-1 antibody and TLR7 agonist (tumor volume)", "assay_type": "in vivo", "details": "CT26 in Balb/c mice, until 23rd day; Compound 1 5 mg/kg iv once a week, anti-PD-1 antibody 200 μg ip twice a week; versus vehicle administration group", "procedure": "1×10^6 Cells of murine colon cancer cell line CT26 (ATCC) were transplanted to the ventral flank of 48 female 6-week-old Balb/c mice. Five days later, the mice were divided into four groups. In vehicle administration group, saline was intravenously administered once a week, and 200 μg of Rat IgG2a isotype control antibody (Bioxcell) was intraperitoneally administered twice a week. In TLR7 agonist administration group, a TLR7 agonist, N-{4-[(2-amino-4-{[(3S)-1-hydroxyhexan-3-yl]amino}-6-methylpyrimidin-5-yl)methyl]-3-methoxybenzyl}-N-(2,2,2-trifluoroethyl)glycine (hereinafter, referred to as “Compound 1”) was administered into a vein in a dose of 5 mg/kg once a week, and 200 μg of Rat IgG2a isotype control antibody (Bioxcell) was intraperitoneally administered twice a week. In anti-PD-1 antibody administration group, 200 μg of anti-PD-1 antibody (Bioxcell) was intraperitoneally administered twice a week. In combination group of Compound 1 and anti-PD-1 antibody, Compound 1 was intravenously administered in a dose of 5 mg/kg once a week, and 200 μg of anti-PD-1 antibody (Bioxcell) was intraperitoneally administered twice a week. After the transplantation of the tumor cell, the tumor volume was measured twice a week, and the body weight was checked once a week until the 23rd day. […]"}, "[2]": {"system": "effector memory T cell", "experiment": "Ratio of effector memory T cell in CD8-positive tumor-infiltrating lymphocytes by FACS (anti-PD-1 study)", "assay_type": "in vivo, Balb/c mice", "details": "tumor on 23rd day, CD8+ CD62L- CD127+, compared with the vehicle administration group, Compound 1 5 mg/kg iv, anti-PD-1 antibody 200 μg ip", "procedure": "(§1) 1×10^6 Cells of murine colon cancer cell line CT26 (ATCC) were transplanted to the ventral flank of 48 female 6-week-old Balb/c mice. Five days later, the mice were divided into four groups. In vehicle administration group, saline was intravenously administered once a week, and 200 μg of Rat IgG2a isotype control antibody (Bioxcell) was intraperitoneally administered twice a week. In Compound 1 administration group, Compound 1 was intravenously administered in a dose of 5 mg/kg once a week, and 200 μg of Rat IgG2a isotype control antibody (Bioxcell) was intraperitoneally administered twice a week. In anti-PD-1 antibody administration group, 200 μg of anti-PD-1 antibody (Bioxcell) was intraperitoneally administered twice a week. In combination group of Compound 1 and anti-PD-1 antibody, Compound 1 was intravenously administered in a dose of 5 mg/kg once a week, and 200 μg of anti-PD-1 antibody (Bioxcell) was intraperitoneally administered twice a week. After the transplantation of the tumor cell, the tumor was picked out on the 23rd day, and a cell suspension of the tumor was prepared by using a tumor dissociation kit (Miltenyi) and a gentle macs dissociates (Miltenyi). […] The obtained cell suspension was stained with fluoresceinated anti-CD8, anti-CD62L, and anti-CD127 antibodies, and analyzed by flow cytometry (FACS) method. […]"}, "[3]": {"system": "MHC class I (H-2Kd)", "experiment": "MHC class I (H-2Kd) on tumor by flow cytometry (anti-PD-1 study)", "assay_type": "in vivo, Balb/c mice", "details": "tumor on 23rd day, CD45-negative H-2Kd-positive fraction; Compound 1 5 mg/kg iv, anti-PD-1 antibody 200 μg ip", "procedure": "1×10^6 Cells of murine colon cancer cell line CT26 (ATCC) were transplanted to the ventral flank of 48 female 6-week-old Balb/c mice. Five days later, the mice were divided into four groups. In vehicle administration group, saline was intravenously administered once a week, and 200 μg of Rat IgG2a isotype control antibody (Bioxcell) was intraperitoneally administered twice a week. In Compound 1 administration group, Compound 1 was intravenously administered in a dose of 5 mg/kg once a week, and 200 μg of Rat IgG2a isotype control antibody (Bioxcell) was intraperitoneally administered twice a week. In anti-PD-1 antibody administration group, 200 μg of anti-PD-1 antibody (Bioxcell) was intraperitoneally administered twice a week. In combination group of Compound 1 and anti-PD-1 antibody, Compound 1 was intravenously administered in a dose of 5 mg/kg once a week, and 200 μg of anti-PD-1 antibody (Bioxcell) was intraperitoneally administered twice a week. After the transplantation of the tumor cell, the tumor was picked out on the 23rd day, and a cell suspension of the tumor was prepared by using a tumor dissociation kit (Miltenyi) and a gentle macs dissociater (Miltenyi). The cell suspension was stained with fluoresceinated anti-CD45 antibody and anti-H-2Kd antibody, and H-2Kd on the cancer cell was detected as CD45-negative and H-2Kd-positive fractions by flow cytometry method."}, "[4]": {"system": "murine colon cancer cell line CT26", "experiment": "Antitumor activity of combination use of anti-CTLA-4 antibody and TLR7 agonist (tumor volume)", "assay_type": "in vivo", "details": "CT26 in Balb/c mice, until 23rd day; Compound 1 5 mg/kg iv once a week, anti-CTLA-4 antibody 200 μg ip twice a week; versus vehicle administration group", "procedure": "1×10^6 Cells of murine colon cancer cell line CT26 (ATCC) were transplanted to the ventral flank of 40 female 7-week-old Balb/c mice. Seven days later, the mice were divided into four groups. In vehicle administration group, saline was intravenously administered once a week, and 200 μg of Rat IgG2a isotype control antibody (Bioxcell) was intraperitoneally administered twice a week. In TLR7 agonist administration group, Compound 1 was intravenously administered in a dose of 5 mg/kg once a week, and 200 μg of Rat IgG2a isotype control antibody (Bioxcell) was intraperitoneally administered twice a week. In anti-CTLA-antibody administration group, 200 μg of anti-CTLA-4 antibody (Bioxcell) was intraperitoneally administered twice a week. In combination group of Compound 1 and anti-CTLA-4 antibody, Compound 1 was intravenously administered in a dose of 5 mg/kg once a week, and 200 μg of anti-CTLA-4 antibody (Bioxcell) was intraperitoneally administered twice a week. After the transplantation of the tumor cell, the tumor volume was measured twice a week, and the body weight was checked once a week until the 23rd day. The tumor volume was obtained by measuring long axis and short axis of the tumor and calculating by a math formula of (short axis)×(short axis)×(long axis)×0.5.\nThe ordinate denotes tumor volume, and the abscissa denotes elapsed days from the transplantation of the tumor cell."}, "[5]": {"system": "effector memory T cell", "experiment": "Ratio of effector memory T cell in CD8-positive tumor-infiltrating lymphocytes by FACS (anti-CTLA-4 study)", "assay_type": "in vivo, Balb/c mice", "details": "tumor on 26th day, CD8+ CD62L- CD127+, compared with the vehicle administration group, Compound 1 5 mg/kg iv, anti-CTLA-4 antibody 200 μg ip", "procedure": "as §1, with “40” for “48”, “Seven” for “Five”, “anti-CTLA-4” for “anti-PD-1”, “26th” for “23rd”, “dissociater” for “dissociates”"}},
  "data": [
    {"compound": "CCC[C@@H](CCO)Nc1nc(N)nc(C)c1Cc1ccc(CN(CC(=O)O)CC(F)(F)F)cc1OC", "note": "[Compound 1, N-{4-[(2-amino-4-{[(3S)-1-hydroxyhexan-3-yl]amino}-6-methylpyrimidin-5-yl)methyl]-3-methoxybenzyl}-N-(2,2,2-trifluoroethyl)glycine]", "values": [
      {"measurement": "tumor-volume variation / tumor growth inhibition", "setting": "[1]", "result": "tumor growth inhibition was observed"},
      {"measurement": "ratio of effector memory T cell in CD8-positive cell", "setting": "[2]", "result": "did not increase"},
      {"measurement": "mean fluorescent intensity (MFI) of H-2Kd", "setting": "[3]", "result": "not so different from that of the vehicle administration group"},
      {"measurement": "tumor-volume variation / tumor growth inhibition", "setting": "[4]", "result": "not so different from that of the vehicle administration group"},
      {"measurement": "ratio of effector memory T cell in CD8-positive cell", "setting": "[5]", "result": "did not increase"}
    ]}
  ]
}
